In brackets after ≈: the same amount, converted by molar mass. Where two headings read alike, the source gives them in different places.
How the values were obtained:
Format in all cases: cell-based
[1] = tested on: Aspergillus fumigatus TR46 (TR46/Y121F/T289A); assay: Planktonic fungus growth: broth microdilution assay (TR46); conditions: Aspergillus fumigatus, read-out: MIC75 Values against Aspergillus fumigatus isolate TR46
Experimental: (§1) This assay was conducted using a modified method published by EUCAST (Rodriguez-Tudela, et al., 2008). Spores of Aspergillus fumigatus (NCPF2010, NCPF7010 [methionine 220 mutation], NCPF7099 [Glycine G54 mutation]) from Public Health England, Wiltshire; TR34/L98H mutants from St Louis Hospital, Paris, France; TR46/Y121F/T289A mutants from University of Delhi, Delhi, India) were cultured in Sabouraud dextrose agar for 3 days. A stock spore suspension was prepared from a Sabouraud dextrose agar culture by washing with PBS-tween (10 mL; phosphate buffered saline containing 0.05% Tween-20, 100 U/mL penicillin and 100 U/mL streptomycin). The spore count was assessed using a Neubauer haemocytometer and then adjusted to 10^6 spores/mL with PBS. A working suspension of spores (2×10^5 spores/mL) was prepared in filter sterilised, BSA MOPS RPMI-1640 (50 mL; RPMI-1640 containing 2 mM L-glutamine, 0.5% BSA, 2% glucose, 0.165 M MOPS, buffered to pH 7 with NaOH).
(§2) For the assay, BSA MOPS RPMI-1640 (50 μL/well) was added throughout the 384-well plate (Catalogue number 353962, BD Falcon, Oxford, UK) first. Test compounds (0.5 μL DMSO solution) were then added in quadruplicate using an Integra VIAFLO 96 (Integra, Zizers, Switzerland), and mixed well using a plate mixer. Subsequently 50 μL of the working spore suspension prepared above was added to all wells except non-spore control wells. For non-spore control wells, BSA MOPS-RPMI solution (50 μL/well) was added instead. The plate was covered with a plastic lid, and incubated (35° C. with ambient air) for 48 hr. The OD of each well at 530 nm was determined using a multi-scanner (Clariostar: BMG, Buckinghamshire, UK). The percentage inhibition for each well was calculated and the MIC50, MIC75 and MIC90 values were calculated from the concentration-response curve generated for each test compound.

[2] = tested on: Aspergillus fumigatus (NCPF2010); assay: Aspergillus fumigatus infection of BEAS2B bronchial epithelial cells (galactomannan); conditions: NCPF2010, galactomannan in supernatant, 24 hr, n = 1-3, read-out: Infection of BEAS2B cells MIC50
Experimental: BEAS2B cells were seeded in 96-well plates (100 μL; 3×10^4 cells/well; Catalogue No 3596, Sigma Aldrich, Dorset, UK) in 10% FBS RPMI-1640 and were then incubated (37° C., 5% CO2) for one day before experimentation. Test compounds (0.5 μL DMSO solution) or vehicle (DMSO) were added to each well to give a final DMSO concentration of 0.5%. BEAS2B cells were incubated with test compounds for 1 hr (35° C., 5% CO2) before infection with Aspergillus fumigatus (20 uL; Public Health England) conidia suspension (0.5×10^5/mL in 10% FBS RPMI-1640). The plate was incubated for 24 hr (35° C., 5% CO2). Supernatant (50 uL) was collected and transferred to a PCR plate (Catalogue No L1402-9700, Starlab, Milton Keynes, UK), which was frozen (−20° C.) until use. After thawing, supernatant (5 μL) was diluted 1:20 by adding R7-PBS solution (95 μL; 1:4 R7 to PBS; Bio-Rad Laboratories, Redmond, Wash., USA). Galactomannan levels in these samples (50 μL) were measured using Platelia GM-EIA kits (Bio-Rad Laboratories, Redmond, Wash., USA). The percentage inhibition for each well was calculated and the IC50 value was calculated from the concentration-response curve generated for each test compound.

[3] = tested on: Aspergillus fumigatus NCPF2010; assay: Planktonic fungus growth: broth microdilution assay (NCPF2010); conditions: Aspergillus fumigatus, NCPF2010, n = 2-3, read-out: MIC75 Values against Aspergillus fumigatus isolate NCPF2010
Experimental: as §1, §2

[4] = tested on: Aspergillus flavus ATCC204304; assay: Fungus panel screening, CLSI broth microdilution; conditions: for MIC50: 50% inhibition by visual inspection (CLSI); for MIC: 100% inhibition by visual inspection (CLSI), read-out: MIC100
Experimental: (§3) Fungus panel screening was conducted by Eurofins Panlabs Inc. The MIC and MIC50 values of the test articles were determined following the guidelines of the CLSI: broth microdilution methods for yeast (CLSI M27-A2), (CLSI, 2002) and for filamentous fungi (CLSI M38-A), (CLSI, 2008).

Candida krusei ATCC6258 = assay: Fungus panel screening, CLSI broth microdilution; conditions: Pichia kudriavzevii; for MIC50: 50% inhibition by visual inspection (CLSI); for MIC: 100% inhibition by visual inspection (CLSI), read-out: MIC100
Experimental: as §3

[5] = tested on: Candida glabrata AT0036583; assay: Fungus panel screening, CLSI broth microdilution; conditions: Nakaseomyces glabratus; for MIC50: 50% inhibition by visual inspection (CLSI); for MIC: 100% inhibition by visual inspection (CLSI), read-out: MIC100
Experimental: as §3

[6] = tested on: Fusarium graminerarum ATCC16106; assay: Fungus panel screening, CLSI broth microdilution; conditions: for MIC50: 50% inhibition by visual inspection (CLSI); for MIC: 100% inhibition by visual inspection (CLSI), read-out: MIC100
Experimental: as §3

[7] = tested on: Candida albicans 20240.047; assay: Fungus panel screening, CLSI broth microdilution; conditions: for MIC50: 50% inhibition by visual inspection (CLSI); for MIC: 100% inhibition by visual inspection (CLSI), read-out: MIC100
Experimental: as §3

[8] = tested on: Aspergillus fumigatus NCPF7100; assay: Planktonic fungus growth: broth microdilution assay (NCPF7100); conditions: Aspergillus fumigatus, NCPF7100, read-out: MIC75 Values against Aspergillus fumigatus isolate NCPF7100
[9] = Cell viability: resazurin assay; conditions: human, 1 day incubation, resazurin, n = 3
Experimental: BEAS2B cells were seeded in 384-well plates (100 μL; 3000/well/; BD Falcon, Catalogue No 353962) in RPMI-LHC8 (RPMI-1640 and LHC8 media combined in equal proportions) one day before experimentation. For cell-free control wells, RPMI-LHC8 (100 μL) was added. Test compounds (0.5 μL of a DMSO solution) were added to give a final DMSO concentration of 0.5% using an Integra VIAFLO 96 (Integra, Zizers, Switzerland). BEAS2B cells were incubated with each test compound for 1 day (37° C./5% CO2 in RPMI-LHC8). After addition of resazurin stock solution (5 μL, 0.04%) the plates were incubated for a further 4 hr (37° C./5% CO2). The fluorescence of each well at 545 nm (excitation) and 590 nm (emission) was determined using a multi-scanner (Clariostar: BMG Labtech). The percentage loss of cell viability was calculated for each well relative to vehicle (0.5% DMSO) treatment. Where appropriate, a CC50 value was calculated from the concentration-response curve generated from the concentration-response curve for each test compound.

[10] = tested on: Aspergillus fumigatus NCPF7099; assay: Planktonic fungus growth: broth microdilution assay (NCPF7099); conditions: Aspergillus fumigatus, NCPF7099, n = 2-3, read-out: MIC75 Values against Aspergillus fumigatus isolate NCPF7099
Experimental: as §1, §2

Row | Compound | MIC [1] | MIC50 [2] | MIC [3] | MIC50 [4] | MIC [4] | MIC50 (Candida krusei ATCC6258) | MIC (Candida krusei ATCC6258) | MIC50 [5] | MIC [5] | MIC50 [6] | MIC [6] | MIC50 [7] | MIC [7] | MIC [8] | CC50 at 1 day ([9]; BEAS2B cells) | MIC [10] | CC50 at 1 day ([9]; read-out: BEAS2B Cell Viability CC50)
1 | Cc1cc(N2CCN(c3ccc(C(=O)N[C@H]4CCCC[C@@H]4O)cc3)CC2)ccc1OC[C@@H]1CO[C@@](Cn2cncn2)(c2ccc(F)cc2F)C1 [Compound (Ia), 4-(4-(4-(((3R,5R)-5-((1H-1,2,4-triazol-1-yl)methyl)-5-(2,4-difluorophenyl)tetrahydrofuran-3-yl)methoxy)-3-methylphenyl)piperazin-1-yl)-N-((1S,2S)-2-hydroxycyclohexyl) benzamide] | 0.093 µM (≈ 0.0639 µg/mL) | 0.00635 µM (≈ 0.00436 µg/mL) | 0.00281 µM (≈ 0.00193 µg/mL) | 0.13 µg/mL (≈ 0.189 µM) | 0.13 µg/mL (≈ 0.189 µM) | 0.25 µg/mL (≈ 0.364 µM) | 0.25 µg/mL (≈ 0.364 µM) | 0.25 µg/mL (≈ 0.364 µM) | > 2 µg/mL | 0.13 µg/mL (≈ 0.189 µM) | 0.5 µg/mL (≈ 0.728 µM) | 0.016 µg/mL (≈ 0.0233 µM) | > 2 µg/mL | 0.0127 µM (≈ 0.00872 µg/mL) | > 14.6 µM | 0.01 µM (≈ 0.00687 µg/mL) | 
2 | CC[C@@H]([C@H](C)O)n1ncn(-c2ccc(N3CCN(c4ccc(OC[C@@H]5CO[C@@](Cn6cncn6)(c6ccc(F)cc6F)C5)cc4)CC3)cc2)c1=O [Posaconazole, reference compound] | 0.414 µM (≈ 0.29 µg/mL) | 0.0116 µM (≈ 0.00813 µg/mL) | 0.0109 µM (≈ 0.00764 µg/mL) | 0.063 µg/mL (≈ 0.0899 µM) | 0.13 µg/mL (≈ 0.186 µM) | 0.13 µg/mL (≈ 0.186 µM) | 0.25 µg/mL (≈ 0.357 µM) | 0.5 µg/mL (≈ 0.713 µM) | > 8 µg/mL | > 8 µg/mL | > 8 µg/mL | 0.031 µg/mL (≈ 0.0442 µM) | > 8 µg/mL | 0.0597 µM (≈ 0.0418 µg/mL) | > 14.3 µM | 0.167 µM (≈ 0.117 µg/mL) | 
3 | C[C@@H](c1ncncc1F)[C@](O)(Cn1cncn1)c1ccc(F)cc1F [Voriconazole] | > 2.86 µM | 0.154 µM (≈ 0.0538 µg/mL) | 0.511 µM (≈ 0.179 µg/mL) | 1 µg/mL (≈ 2.86 µM) | 2 µg/mL (≈ 5.73 µM) | 0.25 µg/mL (≈ 0.716 µM) | 1 µg/mL (≈ 2.86 µM) | 0.25 µg/mL (≈ 0.716 µM) | > 8 µg/mL | > 8 µg/mL | > 8 µg/mL | 0.031 µg/mL (≈ 0.0887 µM) | > 8 µg/mL | 0.543 µM (≈ 0.19 µg/mL) |  | 0.113 µM (≈ 0.0395 µg/mL) | > 28.6 µM

Source: patent publication US10513511B2, “Aqueous suspension formulation comprising 4-(4-(4-(((3R,5R)-5-((1H-1,2,4-triazol-1-yl)methyl)-5-(2,4-difluoro-phenyl)tetrahydrofuran-3-yl)methoxy)-3-methylphenyl) or a pharmaceutically acceptable salt thereof” (PULMOCIDE LIMITED, priority 2015, dated 2019)
